# Source: US8716493B2, “Multicyclic compounds and the use thereof” (Cephalon, Inc., priority 2000, dated 2014)
# Counter-ions that a name gives are not always drawn.
# Target: recombinant human PARP (Homo sapiens, UniProt P09874)
# Assay: Measurement of PARP enzymatic activity (transfer of radiolabeled ADP-ribose from NAD+ to protein acceptor)
# Type: biochemical
# Settings: not given
# Procedure: PARP activity was monitored by transfer of radiolabeled ADP-ribose units from [^32]NAD^+ to a protein acceptor such as histone or PARP itself. […] The reactions were initiated by the addition of 100 μM NAD^+ supplemented with 2 uCi [^32]NAD^+/mL and maintained at room temperature for 12 minutes. […] The amount of acid-insoluble radioactivity, corresponding to polyADP-ribosylated protein, was quantitated in a Wallac MicroBeta scintillation counter.
# Single-point inhibition data were calculated by comparing PARP, VEGFR2, or MLK3 activity in the presence of inhibitor to activity in the presence of DMSO only. Inhibition curves for compounds were generated by plotting percent inhibition versus log10 of the concentration of compound. IC50 values were calculated by nonlinear regression using the sigmoidal dose-response (variable slope) equation in GraphPad Prism as follows: y=bottom+(top−bottom)/(1+10^(log IC50^−x)*Hillslope) where y is the % activity at a given concentration of compound, x is the logarithm of the concentration of compound, bottom is the % inhibition at the lowest compound concentration tested, and top is the % inhibition at the highest compound concentration examined. The values for bottom and top were fixed at 0 and 100, respectively. IC50 values were reported as the average of at least three separate determinations.
# For some compounds, inhibiting data is presented as percent inhibition at a specified concentration. Compounds are tabulated together with compound number, substituents, and enzyme inhibition data.
# recombinant human PARP, sequence (P09874 whole entry): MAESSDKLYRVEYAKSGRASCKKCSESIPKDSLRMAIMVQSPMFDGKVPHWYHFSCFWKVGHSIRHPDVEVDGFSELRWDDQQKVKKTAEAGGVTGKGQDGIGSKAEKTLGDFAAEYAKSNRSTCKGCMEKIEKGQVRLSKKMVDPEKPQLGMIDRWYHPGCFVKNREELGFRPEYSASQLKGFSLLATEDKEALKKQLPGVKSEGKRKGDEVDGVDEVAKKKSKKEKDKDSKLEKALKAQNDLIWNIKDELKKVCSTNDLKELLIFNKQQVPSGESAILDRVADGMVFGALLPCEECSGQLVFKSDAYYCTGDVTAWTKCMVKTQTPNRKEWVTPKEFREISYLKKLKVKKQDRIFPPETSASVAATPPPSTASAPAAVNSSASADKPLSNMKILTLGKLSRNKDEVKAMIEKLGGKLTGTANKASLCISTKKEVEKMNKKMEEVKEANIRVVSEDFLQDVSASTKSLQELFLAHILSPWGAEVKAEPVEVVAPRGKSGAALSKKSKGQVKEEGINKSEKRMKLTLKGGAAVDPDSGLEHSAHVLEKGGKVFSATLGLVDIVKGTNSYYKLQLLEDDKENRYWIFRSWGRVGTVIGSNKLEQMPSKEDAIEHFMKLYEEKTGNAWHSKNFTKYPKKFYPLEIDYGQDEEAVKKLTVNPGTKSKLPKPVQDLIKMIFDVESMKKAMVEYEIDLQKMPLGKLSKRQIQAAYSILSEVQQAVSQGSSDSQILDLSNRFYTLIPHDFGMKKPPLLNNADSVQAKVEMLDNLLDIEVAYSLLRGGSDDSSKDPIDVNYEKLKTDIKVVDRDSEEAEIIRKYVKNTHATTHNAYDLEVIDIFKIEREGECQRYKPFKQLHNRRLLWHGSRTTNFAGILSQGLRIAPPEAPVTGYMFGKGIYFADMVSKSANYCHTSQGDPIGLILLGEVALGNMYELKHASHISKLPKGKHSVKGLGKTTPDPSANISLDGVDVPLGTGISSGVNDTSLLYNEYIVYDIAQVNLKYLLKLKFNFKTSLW
row,Structure (SMILES),IC50 [nM]
1,O=C1NC(=O)c2c1c1c(c3[nH]c4ccc(C(=O)N5CCC6(CC5)OCCO6)cc4c23)CCC1 [Compound 2db],11

# Same assay, conditions: PARP IC50 (nM), Table 2
row,Structure (SMILES),IC50 [nM]
1,O=C(CBr)c1ccc2[nH]c3c4c(c5c(c3c2c1)C(=O)NC5=O)CCC4 [Compound 2e],13
2,O=C(NCc1nc(-c2ccc3[nH]c4c5c(c6c(c4c3c2)C(=O)NC6=O)CCC5)cs1)OCc1ccccc1 [Compound 3j],20

# Same assay, conditions: PARP IC50 (nM), Table 8
row,Structure (SMILES),IC50 [nM]
1,CN1CCN(C(=O)Oc2ccc3[nH]c4c5c(c6c(c4c3c2)C(=O)NC6=O)CCC5)CC1 [Compound 15b],51

# Same assay, conditions: PARP IC50, Table 18
row,Structure (SMILES),IC50 [nM]
1,O=C(NCCn1cncn1)Oc1ccc2[nH]c3c4c(c5c(c3c2c1)C(=O)NC5=O)CCC4 [Compound 15n],38
2,O=C1NC(=O)c2c1c1c(c3[nH]c4ccc(OC(=O)N5CCCCC5)cc4c23)CCC1 [Compound 15p],82

# Same assay, conditions: Table 1; read-out: PARP IC50
row,Structure (SMILES),IC50 [nM]
1,O=C1c2c3c(c4[nH]c5ccccc5c4c2C(=O)N1CCOCc1ccccc1)CCC3 [Compound 1n],1600
2,NCCC(=O)N1C(=O)c2c3c(c4[nH]c5ccccc5c4c2C1=O)CCC3 [Compound 1l],160
3,"CC(C)(C)OC(=O)NCCCC[C@H](NC(=O)OC(C)(C)C)C(=O)n1c2ccccc2c2c3c(c4c(c21)CCC4)C(=O)NC3 [Compound 1u, 11-[Bis(t-butoxycarbonyl)-L-lysyl]-5,7,8,9,10,11-hexahydrocyclopent[a]pyrrolo[3,4-c]carbazole-7(6H)-one]",1500
4,O=C1c2c3c(c4[nH]c5ccccc5c4c2C(=O)N1S(=O)(=O)c1ccccc1)CCC3 [Compound 1j],250
5,CCN(CC)CCCN1C(=O)c2c3c(c4[nH]c5ccccc5c4c2C1=O)CCC3 [Compound 1h],819

# Same assay, conditions: Table 2; read-out: PARP IC50
row,Structure (SMILES),IC50 [nM]
1,CC(=O)NCc1nc(-c2ccc3[nH]c4c5c(c6c(c4c3c2)C(=O)NC6=O)CCC5)cs1 [Compound 3n],20
2,O=C1NC(=O)c2c1c1c(c3[nH]c4ccc(CN5CCCC5)cc4c23)CCC1 [Compound 2bw],35
3,CC(C)(C)OC(=O)[C@@H]1CCCN1C(=O)CCC(=O)c1ccc2[nH]c3c4c(c5c(c3c2c1)C(=O)NC5=O)CCC4 [Compound 4h],7
4,O=CNCc1ccc2[nH]c3c4c(c5c(c3c2c1)C(=O)NC5=O)CCC4 [Compound 2ce],34
5,O=C(Cn1cncn1)c1ccc2[nH]c3c4c(c5c(c3c2c1)C(=O)NC5=O)CCC4 [Compound 2n],15
6,"O=C(O)CCC(=O)NCc1ccc2[nH]c3c4c(c5c(c3c2c1)C(=O)NC5=O)CCC4 [Compound 2ab, 3-(N-(3-(Carboxy)propanoyl)aminomethyl)-5,7,8,9,10,11-hexahydrocyclopent[a]-pyrrolo[3,4-c]carbazole-5(6H), 7-dione]",50
7,O=C(CCC(=O)N1CCCC1C(=O)O)c1ccc2[nH]c3c4c(c5c(c3c2c1)C(=O)NC5=O)CCC4 (stereo not shown) [Compound 4j],2
8,O=C1NC(=O)c2c1c1c(c3[nH]c4ccc(CNS(=O)(=O)c5ccccc5)cc4c23)CCC1 [Compound 2cd],39
9,CCN(CC)C(=O)CCC(=O)c1ccc2[nH]c3c4c(c5c(c3c2c1)C(=O)NC5=O)CCC4 [Compound 4i],12
10,"CC(C)(C)OC(=O)NCCCC(=O)NCc1ccc2[nH]c3c4c(c5c(c3c2c1)C(=O)NC5=O)CCC4 [Compound 2w, 3-(N-(4-(N-Boc-amino)butanoyl)aminomethyl)-5,7,8,9,10,11-hexahydrocyclopent[a]pyrrolo[3,4-c]carbazole-5(6H), 7-dione]",33
11,O=C(CN1CCCCC1)c1ccc2[nH]c3c4c(c5c(c3c2c1)C(=O)NC5=O)CCC4 [Compound 2i],20
12,NCCNC(=O)CCC(=O)c1ccc2[nH]c3c4c(c5c(c3c2c1)C(=O)NC5=O)CCC4 [Compound 4e],22
13,CN(C)CCCOc1ccc2[nH]c3c4c(c5c(c3c2c1)C(=O)NC5=O)CCC4 [Compound 2as],100
14,CCN(CC)Cc1ccc2[nH]c3c4c(c5c(c3c2c1)C(=O)NC5=O)CCC4 [Compound 2bm],17
15,CCCCN(CCCC)Cc1ccc2[nH]c3c4c(c5c(c3c2c1)C(=O)NC5=O)CCC4 [Compound 2bn],28
16,O=C1NC(=O)c2c1c1c(c3[nH]c4ccc(Br)cc4c23)CCC1 [Compound 2a],25
17,"CC(C)(C)OC(=O)NCC(=O)NCc1ccc2[nH]c3c4c(c5c(c3c2c1)C(=O)NC5=O)CCC4 [Compound 2v, 3-(N-(2-(N-Boc-amino)acetyl)aminomethyl)-5,7,8,9,10,11-hexahydrocyclopent[a]pyrrolo[3,4-c]carbazole-5(6H), 7-dione]",33
18,CS(=O)(=O)Cc1nc(-c2ccc3[nH]c4c5c(c6c(c4c3c2)C(=O)NC6=O)CCC5)cs1 [Compound 3z],38

row,Structure (SMILES),IC50 [nM]
1,CC(C)(C)S(=O)(=O)Cc1nc(-c2ccc3[nH]c4c5c(c6c(c4c3c2)C(=O)NC6=O)CCC5)cs1 [Compound 3p],21
2,O=CNCc1ccc2[nH]c3c4c(c5c(c3c2c1)C(O)NC5=O)CCC4 (stereo not shown) [Compound 2cf],124
3,Cc1nc(-c2ccc3[nH]c4c5c(c6c(c4c3c2)C(=O)NC6=O)CCC5)c(Br)s1 [Compound 3c],84
4,O=C(CCC(=O)N1CCCC1)c1ccc2[nH]c3c4c(c5c(c3c2c1)C(=O)NC5=O)CCC4 [Compound 4t],16
5,O=C(CN1CCCC1C(=O)O)c1ccc2[nH]c3c4c(c5c(c3c2c1)C(=O)NC5=O)CCC4 (stereo not shown) [Compound 4c],7
6,CC(Br)C(=O)c1ccc2[nH]c3c4c(c5c(c3c2c1)C(=O)NC5=O)CCC4 (stereo not shown) [Compound 2f],21
7,CC(C)(C)OC(=O)NCCC(=O)NCc1ccc2[nH]c3c4c(c5c(c3c2c1)C(=O)NC5=O)CCC4 [Compound 2ca],95
8,CC(O)c1ccc2[nH]c3c4c(c5c(c3c2c1)C(=O)NC5=O)CCC4 (stereo not shown) [Compound 2ax],102
9,CCOCCOc1ccc2[nH]c3c4c(c5c(c3c2c1)C(=O)NC5=O)CCC4 [Compound 2aq],59
10,"CC(=O)NCc1ccc2[nH]c3c4c(c5c(c3c2c1)C(=O)NC5=O)CCC4 [Compound 2r, 3-(Acetylaminomethyl)-5,7,8,9,10,11-hexahydrocyclopent[a]pyrrolo[3,4-c]carbazole-5(6H), 7-dione]",13
11,"O=C1NC(=O)c2c1c1c(c3[nH]c4ccc(CNCc5ccc6[nH]c7c8c(c9c(c7c6c5)C(=O)NC9=O)CCC8)cc4c23)CCC1 [Compound 2q, Bis-[5(6H), 7-dioxo-5,7,8,9,10,11-hexahydrocyclopent[a]pyrrolo[3,4-c]carbazol-3-ylmethyl]amine hydrochloride]",167
12,O=C1NC(=O)c2c1c1c(c3[nH]c4ccc(C(=O)N(CCO)CCO)cc4c23)CCC1 [Compound 2dc],18
13,O=C(CCC(=O)N1CCCCCCC1)c1ccc2[nH]c3c4c(c5c(c3c2c1)C(=O)NC5=O)CCC4 [Compound 4s],26
14,CCCC(=O)NCc1nc(-c2ccc3[nH]c4c5c(c6c(c4c3c2)C(=O)NC6=O)CCC5)cs1 [Compound 3u],42
15,O=C(NCCc1ccccn1)c1ccc2[nH]c3c4c(c5c(c3c2c1)C(=O)NC5=O)CCC4 [Compound 2cv],18
16,"O=C(NCc1ccc2[nH]c3c4c(c5c(c3c2c1)C(=O)NC5=O)CCC4)c1ccccc1 [Compound 2u, 3-(Benzoylaminomethyl)-5,7,8,9,10,11-hexahydrocyclopent[a]pyrrolo[3,4-c]carbazole-5(6H), 7-dione]",37
17,"N#Cc1ccc2[nH]c3c4c(c5c(c3c2c1)C(=O)NC5=O)CCC4 [Compound 2o, 3-Cyano-5,7,8,9,10,11-hexahydrocyclopent[a]pyrrolo[3,4-c]carbazole-5(6H), 7-dione]",14
18,CC(=O)Oc1ccc2[nH]c3c4c(c5c(c3c2c1)C(=O)NC5=O)CCC4 [Compound 2au],33

# Same assay, conditions: Table 3; read-out: PARP IC50
row,Structure (SMILES),IC50 [nM]
1,NCCCC[C@H](N)C(=O)N1C(=O)c2c3c(c4[nH]c5ccc(Cl)cc5c4c2C1=O)CCC3 [Compound 6f],62

# Same assay, conditions: Table 4; read-out: PARP IC50
row,Structure (SMILES),IC50 [nM]
1,"O=C1NC(=O)c2c1c1c(c3[nH]cc(Br)c23)CCC1 [Compound 8c, 3-Bromo-1,6,7,8-tetrahydrocyclopent[g]indole-4,5-dicarboxylate imide]",5

# Same assay, conditions: Table 18; read-out: PARP IC50
row,Structure (SMILES),IC50 [nM]
1,CC(C)OCCOc1cccc2[nH]c3c4c(c5c(c3c12)C(=O)NC5=O)CCC4 [Compound 14j],70
2,O=C1NC(=O)c2c1c1c(c3[nH]c4nccc(Cl)c4c23)CCC1 [Compound 8z],9
3,O=C1NC(=O)c2c1c1c(c3[nH]c4cccc(OCCN5CCOCC5)c4c23)CCC1 [Compound 14d],441
4,CCOCCOc1ccnc2[nH]c3c4c(c5c(c3c12)C(=O)NC5=O)CCC4 [Compound 8ab],11
5,COc1cnc2[nH]c3c4c(c5c(c3c2c1)C(=O)NC5=O)CCC4 [Compound 8w],4
6,COc1c(C#N)ccc2[nH]c3c4c(c5c(c3c12)C(=O)NC5=O)CCC4 [Compound 14o],7
7,COc1cc[n+]([O-])c2[nH]c3c4c(c5c(c3c12)C(=O)NC5=O)CCC4 [Compound 8m],17
8,O=C1NC(=O)c2c1c1c(c3[nH]c4cccc(O)c4c23)CCC1 [Compound 14c],176
9,COCCOc1ccnc2[nH]c3c4c(c5c(c3c12)C(=O)NC5=O)CCC4 [Compound 8aa],10
